Patent US5324739A (priority 1993, dated 1994)

Experiments:
MRC-5 cells = assay: cytotoxicity / antiproliferative assay on dividing and confluent MRC-5 cells (MTT); format: cell-based, human; conditions: proliferating vs quiescent cells
Procedure: Evaluation of the antiproliferative activity of fractions using MRC-5 cells in culture was performed using the following procedure: Human embryonic lung (MRC-5) cells were obtained from the American Type Culture Collection. The cells were grown in Eagle's Minimum Essential Medium with Earle's salts (EMEM, JRH Bioscience) supplemented with 10% fetal calf serum (Hyclone), 0.75 mg/mL NaHCO3, 100 units of penicillin per mL, and 100 μg streptomycin per mL (Gibco Labs). As in the AB1 cell assay, cell growth and survival was determined calorimetrically, based upon the uptake and reduction of the tetrazolium salt, MTT, to a blue-colored formazan product by mitochondrial enzymes of living cells. The effect of the fractions, as potential inhibitors at different stages of the cell cycle, was determined by performing the assay using both resting and rapidly dividing cells. […] At the end of the incubation, the medium was aspirated, the cells were rinsed once using PBS, and 1.0 mg/mL of MTT was added to each well. The plates were incubated with MTT for three hours, after which the MTT was aspirated and isopropanol was added to dissolve any formazen crystals that formed. Plates were "read" on an Elisa reader at 570 nm (principal wavelength) and again at 650 wavelength (reference wavelength) to correct for non-specific background absorbance, using a Thermomax Spectrophotometer (Molecular Devices). […]

proliferating cells = assay: administration of formulations containing Curacins A and B to mice (data not shown); format: in vivo; conditions: various direct methods and oral
Text: In addition, these tests indicate that Curacins A and B can be administered to animal subjects using dosage protocols that are substantially similar to such protocols used with other antimitotics.

MRC-5 cells; AB1 cells = assay: activity of second-stage fractions and of the separated isomers (FIG. 1; test not stated); format: cell-based; conditions: Curacin A vs Curacin B
Procedure: Elution in the second stage was performed within a much smaller range of increasingly greater amounts of ethyl acetate in hexane (1 to 5% in 0.5 to 1.0% increments). […] Fractions 5-9 were pooled and, as such, represented about 200 mg total.
Since the Curacin A and Curacin B compounds were […] to CH2 N2, methylation offered a way to purify the compound from the contaminants in the extract. After reaction of the extract with CH2 N2, the extract was subjected to high performance liquid chromatography (HPLC) in an effort to separate the two isomers. […]
Evaluation of the antiproliferative activity of fractions using MRC-5 cells in culture was performed using the following procedure: Human embryonic lung (MRC-5) cells were obtained from the American Type Culture Collection. […] As in the AB1 cell assay, cell growth and survival was determined calorimetrically, based upon the uptake and reduction of the tetrazolium salt, MTT, to a blue-colored formazan product by mitochondrial enzymes of living cells. The effect of the fractions, as potential inhibitors at different stages of the cell cycle, was determined by performing the assay using both resting and rapidly dividing cells. […]

spleen lymphocytes = assay: ex vivo experiments on spleen lymphocytes after administration to mice; conditions: 1-10 mg/kg
brine shrimp = format: in vivo; conditions: see Example 1
Procedure: In this Example, various concentrations of the organic extract of Lyngbya majuscula were tested using a brine-shrimp assay. The assay was performed according to the following procedure: 24 hours before performing the assay, brine shrimp eggs were hatched in sea water (made by dissolving INSTANT OCEAN dry concentrate in water according to manufacturer's directions). A volume of the organic extract of Lyngbya majuscula was placed in a 50-mL conical flask (weighed beforehand to obtain the tare weight) and the solvent was evaporated. The flask was re-weighed and the tare weight subtracted to yield the weight of non-volatile residue from the extract. The residue was dissolved with a suitable volume of ethanol to yield a concentration of 0.1 mg residue per μL ethanol. Four vials were prepared, the first containing 50 μL of the ethanol solution, the second containing 10 μL of the ethanol solution plus 40 μL ethanol, the third containing 2.5 μL of the ethanol solution plus 47.5 μL ethanol, and the fourth containing none of the solution and 50 μL ethanol (serving as a negative control). Between 10 and 15 live brine shrimp were placed in each vial and stored for 24 hours, after which the number of live and dead shrimp were tallied for each vial. […]

[1] = test system: 60 different human tumor cell lines; conditions: for cytotoxicity: cancer cell lines
Procedure: In these examples, an extract of Lyngbya majuscula containing Curacins A and B was subjected to the drug screening procedure employed by the National Cancer Institute for the screening of drugs having possible anticancer utility.
The screening procedure employed a diverse, disease-oriented panel consisting of 60 different human tumor cell lines organized into seven disease-specific subpanels. The extract was tested over a wide range of concentrations for cytotoxic or growth-inhibitory effects against each cell line comprising the panel. The seven subpanels represented diverse histologies (leukemias, melanomas, and tumors of the lung, colon, kidney, ovary, and brain).
The extract was tested over two days in which the cells were continuously exposed to five log10 -spaced concentrations of the drug starting at 10^-4 μg/mL. The tests produced 60 individual dose-response curves, one for each cell line (i.e., one for each example).
To produce data for the mean-graph format shown in FIG. 7, a concentration of the extract that produced a target level response was calculated for each cell line. Three different response parameters were evaluated. The first response parameter was the "GI50," which is the concentration of the extract that produced an apparent 50% decrease in the number of tumor cells relative to the appropriate control (not exposed to extract) at the end of the incubation period. The second response parameter was the "TGI," which is the concentration at which the number of tumor cells remaining at the end of the incubation period substantially equaled the number of tumor cells existing at the start of the incubation period. The third response parameter was the "LC50," which is the concentration of extract that caused an apparent 50 percent reduction in the number of tumor cells relative to the appropriate control (not exposed to extract) at the start of the incubation period.
In a typical GI50 mean graph (e.g., left graph of FIG. 7), the relative position of the vertical reference line along the horizontal concentration axis is obtained by averaging the negative log10 GI50 values for all the cell lines tested against the extract. Horizontal bars are then plotted for the individual negative log10 GI50 values of each cell line relative to the vertical reference line. […] The length of a bar is proportional to the difference between the log10 GI50 value obtained with the particular cell line and the mean (represented by the vertical reference line).
COMPARE is used to rank the similarity of the mean graph profile of the sample extract or drug to the patterns of all the other compounds in the NCI screening database or a defined subset thereof.

| SMILES | activity against proliferating versus quiescent cells (MRC-5 cells) | bioavailability (proliferating cells) | effectiveness in vivo against proliferating cells (proliferating cells) | activity of Curacin A relative to Curacin B (times more active) (MRC-5 cells; AB1 cells) | effect against spleen lymphocytes (spleen lymphocytes) | effectiveness for reducing a population of representative arthropods (brine shrimp) (brine shrimp) | mode of action indicated by COMPARE analysis ([1]; COMPARE data, Tables 1 and 2) | cytotoxicity [1] | antiproliferative activity against living cells in culture ([1]; living cells in culture) | antimitotic activity ([1]; various tests) |
| --- | --- | --- | --- | --- | --- | --- | --- | --- | --- | --- |
| C=CC[C@@H](CC/C(C)=C/C=C/CC/C=C\[C@@H]1CSC([C@@H]2C[C@@H]2C)=N1)OC [Curacin A] | more active against proliferating cells than against quiescent cells | bioavailable | effective in vivo against proliferating cells | about 10^2 | substantial effect against spleen lymphocytes | effectiveness | functions as an antimitotic | cytotoxic | substantial antiproliferative activity | substantial antimitotic activity |
| C=CC[C@@H](CC/C(C)=C/C=C\CC/C=C\[C@@H]1CSC([C@@H]2C[C@@H]2C)=N1)OC [Curacin B] | more active against proliferating cells than against quiescent cells | bioavailable | effective in vivo against proliferating cells | – | substantial effect against spleen lymphocytes | – | – | cytotoxic | – | – |
